Measured values published in patent US10029994B2, “Isoxazole hydroxamic acid compounds as LpxC inhibitors” (priority 2014, dated 2018).

Key:
[1] = biological target: T1, P. aeruginosa LpxC (Pseudomonas aeruginosa, UniProt P47205); assay: P. aeruginosa LpxC Inhibition Assay (LC-MS/MS); type: biochemical; conditions: 1 nM P. aeruginosa LpxC, 30 min pre-incubation, 2 μM UDP-3-O-(R-3-hydroxydecanoyl)-GlcNAc, pH 7.5
T1 construct: made in house
T1 sequence (P47205 1-303): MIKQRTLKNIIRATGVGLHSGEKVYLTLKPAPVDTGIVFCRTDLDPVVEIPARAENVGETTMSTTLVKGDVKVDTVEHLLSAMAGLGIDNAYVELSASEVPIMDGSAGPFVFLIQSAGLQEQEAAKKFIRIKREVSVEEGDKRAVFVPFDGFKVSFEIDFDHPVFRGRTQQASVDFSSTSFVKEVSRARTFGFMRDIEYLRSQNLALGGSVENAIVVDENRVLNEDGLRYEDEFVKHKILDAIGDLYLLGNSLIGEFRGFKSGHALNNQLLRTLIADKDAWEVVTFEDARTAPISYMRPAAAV
Text: P. aeruginosa LpxC Inhibition Assay
The P. aeruginosa LpxC protein is produced according to the general method of Hyland et al (Journal of Bacteriology 1997 179, 2029-2037: Cloning, expression and purification of UDP-3-O-acyl-GlcNAc deacetylase from Pseudomonas aeruginosa: a metalloamidase of the lipid A biosynthesis pathway). The LC-MS/MS method for quantitation of LpxC product was developed using an Agilent 1200 Capillary HPLC system coupled to an Applied Biosystems MDS Sciex 4000QTRAP mass spectrometer. Both instruments are controlled using the Applied Biosystems MDS Sciex Analyst software. LpxC reaction product (UDP-3-O—(R-3-hydroxyacyl)-glucosamine) was produced by hydrolysis of LpxC substrate catalyzed by P.a. LpxC and purified using reversed phase chromatography on a Phenomenex Luna C18(2) 4.6×50 mm column. An LpxC product calibration curve was generated to evaluate the sensitivity and dynamic range of the LC-MS/MS method. Briefly, compounds are pre-incubated with 1 nM P. aeruginosa LpxC for 30 min. at room temperature. Reactions are initiated by the addition of 2 μM UDP-3-O—(R-3-hydroxydecanoyl)-GlcNAc. Reactions are conducted in a 384-well plate with a total volume of 50 μL in each well containing 50 mM Sodium phosphate pH 7.5, 0.005% Trition X-100 for 20 min at room temperature. After quenching with 1.8% HOAc (5 μL of a 20% HOAc added to each well), reaction mixtures are analyzed using the LC-MS/MS method and peak areas are transformed into product concentration using a LpxC product calibration curve. Total activity (0% inhibition control) is obtained from reactions with no inhibitors and 100% inhibition control is the background using quenched samples before reaction starts. For IC50 determinations, peak areas are converted to percent inhibition in Microsoft Excel. Percent inhibition values are plotted vs. log compound concentration using XLfit. Data is fit to the four-parameter logistic equation using the non-linear regression algorithm in XLfit to return the IC50 and hill slope values.

[2] = tested on: E. C. ATCC 29522; assay: MIC in the presence of sub-inhibitory rifampicin (potentiation/synergy); type: cell-based, Escherichia coli; conditions: +2 μg/ml rifampicin (RIF); broth microdilution, 35° C., 20 hours
Procedure: (§1) Bacterial isolates were cultivated from −70° C. frozen stocks by two consecutive overnight passages at 35° C. in ambient air on 5% blood agar (Remel, Lenexa, Kans.). Quality control strain, P. aeruginosa ATCC 27853, A. baumannii ATCC19606 and E. coli ATCC 25922 are from the American Type Culture Collection (ATCC; Rockville, Md.) and PAO1 was received from Dr. K. Poole.
(§2) Minimal Inhibitory Concentrations (MICs) were determined by the broth microdilution method in accordance with Clinical and Laboratories Institute (CLSI) guidelines (CLSI M100-S25, Performance Standards for Antimicrobial Susceptibility Testing; Twenty-fifth Informational Supplement). In brief, fresh bacterial overnight cultures were resuspended in sterile saline, adjusted to a 0.5 McFarland turbidity standard and then diluted 2000-fold in cation adjusted Mueller-Hinton Broth II (MHB; Remel BBL) to yield a final inoculum of approximately 5×10^5 colony-forming units (CFU)/mL. Two-fold serial dilutions of compounds were prepared in 100% dimethyl sulfoxide (DMSO) at 100-fold the highest final assay concentration; the resulting dilution series of compounds were diluted 1:10 with sterile water. Ten μl of the drug dilution series in 10% DMSO was transferred to microtiter wells and 90 μl of bacterial suspension was inoculated into the wells. For testing the ability of compounds to potentiate the activity of known antibiotics, the assay was modified as follows; known antibiotics were added to the bacterial inoculum at 1.1-fold the final assay concentration indicated in Table A. All inoculated microdilution trays were incubated in ambient air at 35° C. for 20 hours. Following incubation, assay plates were read in a microtiter plate reader at 600 nm and visually inspected to confirm the MIC endpoint well with the OD value. The lowest concentration of the compound that prevented visible growth was recorded as the MIC. Performance of the assay was monitored by testing ciprofloxacin against the laboratory quality control strain in accordance with guidelines of the CLSI.

[3] = tested on: A. B. ATCC 19606; assay: MIC, broth microdilution (CLSI); type: cell-based, Acinetobacter baumannii; conditions: Acinetobacter baumannii, ATCC19606; broth microdilution, 35° C., 20 hours; read-out: A. B. ATCC 19606 MIC
Procedure: as §1, §2

[4] = tested on: P. A. PAO1 NB52019; assay: MIC, broth microdilution (CLSI); type: cell-based, Pseudomonas aeruginosa; conditions: Pseudomonas aeruginosa, PAO1; broth microdilution, 35° C., 20 hours; read-out: P. A. PAO1 NB52019 MIC
Procedure: as §1, §2

[5] = tested on: A. B. ATCC 19606; assay: MIC in the presence of sub-inhibitory rifampicin (potentiation/synergy); type: cell-based, Acinetobacter baumannii; conditions: +2 μg/ml rifampicin (RIF); broth microdilution, 35° C., 20 hours
Procedure: as §1, §2

[6] = tested on: E. C. ATCC 25922; assay: MIC, broth microdilution (CLSI); type: cell-based, Escherichia coli; conditions: Escherichia coli, ATCC25922, 20 h, broth microdilution, 35° C., 20 hours; read-out: E. C. ATCC 25922 MIC
Procedure: as §1, §2

Row | SMILES | IC50 [1] | E. C. ATCC 29522 (+2 μg/ml RIF) MIC [2] | MIC [3] | MIC [4] | A. B. ATCC 19606 (+2 μg/ml RIF) MIC [5] | MIC [6]
1 | CCCC#Cc1cc(CC[C@](C)(C(=O)NO)S(C)(=O)=O)no1 [Compound 1.7, (R)—N-hydroxy-2-methyl-2-(methylsulfonyl)-4-(5-(pent-1-yn-1-yl)isoxazol-3-yl)butanamide] | < 1 nM | ≤0.06 µg/mL | > 64 µg/mL | 0.25 µg/mL | 0.125 µg/mL | 2 µg/mL
2 | CC1(C#Cc2cc(CC[C@](C)(C(=O)NO)S(C)(=O)=O)no2)CC1 [Compound 1.8, (R)—N-hydroxy-2-methyl-4-(5-((1-methylcyclopropyl)ethynyl)isoxazol-3-yl)-2-(methylsulfonyl)butanamide] | < 1 nM | 0.25 µg/mL | > 64 µg/mL | 0.25 µg/mL | ≤0.06 µg/mL | 8 µg/mL
3 | C[C@@](CCc1cc(C#CCCF)on1)(C(=O)NO)S(C)(=O)=O [Compound 1.9] | 3 nM | 0.125 µg/mL | > 64 µg/mL | 1 µg/mL | 1 µg/mL | 32 µg/mL
4 | C[C@@](CCc1cc(C#CCCCF)on1)(C(=O)NO)S(C)(=O)=O [Compound 1.10, (R)-4-(5-(5-fluoropent-1-yn-1-yl)isoxazol-3-yl)-N-hydroxy-2-methyl-2-(methylsulfonyl)butanamide] | < 1 nM | 0.25 µg/mL | > 64 µg/mL | 0.5 µg/mL | 0.25 µg/mL | 8 µg/mL
5 | C[C@@](CCc1cc(C#CCCC(F)F)on1)(C(=O)NO)S(C)(=O)=O [Compound 1.11, (R)-4-(5-(5,5-Difluoropent-1-yn-1-yl)isoxazol-3-yl)-N-hydroxy-2-methyl-2-(methylsulfonyl)butanamide] | 1 nM | 0.5 µg/mL | > 64 µg/mL | 1 µg/mL | 1 µg/mL | 32 µg/mL
6 | C[C@@](CCc1cc(C#CC2CC(F)(F)C2)on1)(C(=O)NO)S(C)(=O)=O [Compound 1.12, (R)-4-(5-((3,3-difluorocyclobutyl)ethynyl)isoxazol-3-yl)-N-hydroxy-2-methyl-2-(methylsulfonyl)butanamide] | < 1 nM | 0.25 µg/mL | > 64 µg/mL | 0.5 µg/mL | ≤0.06 µg/mL | 16 µg/mL
7 | CC(C)(O)CCC#Cc1cc(CC[C@](C)(C(=O)NO)S(C)(=O)=O)no1 [Compound 1.14, (R)—N-hydroxy-4-(5-(5-hydroxy-5-methylhex-1-yn-1-yl)isoxazol-3-yl)-2-methyl-2-(methylsulfonyl)butanamide] | 2 nM | 16 µg/mL | > 64 µg/mL | 8 µg/mL | ≤0.06 µg/mL | > 64 µg/mL
8 | CC(C)(O)C1CC(C#Cc2cc(CC[C@](C)(C(=O)NO)S(C)(=O)=O)no2)C1 (stereo partly drawn) [Compound 1.16, (R)—N-hydroxy-4-(5-((3-(2-hydroxypropan-2-yl)cyclobutyl)ethynyl)isoxazol-3-yl)-2-methyl-2-(methylsulfonyl)butanamide] | < 1 nM | 4 µg/mL | > 64 µg/mL | 2 µg/mL | 4 µg/mL | 16 µg/mL
9 | CC(CCc1cc(C#Cc2ccc(CO)cc2)on1)(C(=O)NO)S(C)(=O)=O (stereo not drawn) [Compound 2.1, N-hydroxy-4-(5-((4-(hydroxymethyl)phenyl)ethynyl)isoxazol-3-yl)-2-methyl-2-(methylsulfonyl)butanamide] | < 1 nM | ≤0.06 µg/mL | > 64 µg/mL | 0.5 µg/mL | 2 µg/mL | 2 µg/mL
10 | CC(CCc1cc(C#Cc2ccc(CCO)cc2)on1)(C(=O)NO)S(C)(=O)=O (stereo not drawn) [Compound 2.2, N-hydroxy-4-(5-((4-(2-hydroxyethyl)phenyl)ethynyl)isoxazol-3-yl)-2-methyl-2-(methylsulfonyl)butanamide] | < 1 nM | ≤0.06 µg/mL | > 64 µg/mL | 0.25 µg/mL | 0.5 µg/mL | 0.25 µg/mL
11 | COC(CO)c1ccc(C#Cc2cc(CCC(C)(C(=O)NO)S(C)(=O)=O)no2)cc1 (stereo not drawn) [Compound 2.3, N-hydroxy-4-(5-((4-(2-hydroxy-1-methoxyethyl)phenyl)ethynyl)isoxazol-3-yl)-2-methyl-2-(methylsulfonyl)butanamide] | < 1 nM | 0.125 µg/mL | > 64 µg/mL | 0.5 µg/mL | 4 µg/mL | 1 µg/mL
12 | CC(CCc1cc(C#Cc2ccccc2)on1)(C(=O)NO)S(C)(=O)=O (stereo not drawn) [Compound 2.4, N-hydroxy-2-methyl-2-(methylsulfonyl)-4-(5-(phenylethynyl)isoxazol-3-yl)butanamide] | < 1 nM | ≤0.06 µg/mL | 64 µg/mL | 0.5 µg/mL | ≤0.06 µg/mL | 0.5 µg/mL
